Ends that are not written are not given here.
Tested on: PBMC of healthy adult blood donors from Colombo, Sri Lanka
Experiment: Ex vivo IFNγ ELISPOT, HLA-matched PBMC of Sri Lankan blood donors
Format: cell-based, human
Parameters: Total Response per epitope: unit not given here
Settings: for # donors responded: number of donors responding to the epitope; for T cell response [SFC]: ex vivo IFNγ SFC/10^6 PBMC; for # of responders: responding donors, HLA allele(s)
[1] = restricting HLA allele and serotype as given
[2] = total over responding donors, restricting HLA allele and serotype as given
[3] = IFNγ ELISPOT response summed over responding donors, per epitope
[4] = HLA-matched PBMC, proteome-wide screen
[5] = HLA allele, supertype and serotype
[6] = summed IFNγ ELISPOT response per epitope, HLA allele and serotype as given

Compound	# donors responded [1]	Total Response per epitope [2]	Total Response per epitope [3]	# donors responded [4]	other results
CC(C)[C@H](NC(=O)[C@H](C)NC(=O)[C@@H](N)CCC(=O)O)C(=O)N[C@@H](CCC(=O)O)C(=O)N[C@@H](CC(=O)O)C(=O)N[C@@H](CO)C(=O)N[C@@H](CCCNC(=N)N)C(=O)N[C@@H](Cc1ccccc1)C(=O)N[C@@H](Cc1c[nH]c2ccccc12)C(=O)N[C@@H](CCC(=O)O)C(=O)O	1	248.3	–	–	–
REIPERSWNT	–	–	1278.3	2	–
IGIGVLLTW	1	378.3	–	–	–
CC[C@H](C)[C@H](N)C(=O)N[C@H](C(=O)N[C@@H](CC(C)C)C(=O)N[C@@H](CCC(=O)O)C(=O)N[C@@H](Cc1ccccc1)C(=O)N[C@@H](Cc1ccccc1)C(=O)N[C@@H](CC(C)C)C(=O)N[C@@H](CCSC)C(=O)N[C@H](C(=O)O)C(C)C)[C@@H](C)CC	1	143.3	–	–	–
CC[C@H](C)[C@H](NC(=O)[C@H](C)NC(=O)[C@H](CC(C)C)NC(=O)[C@H](CS)NC(=O)[C@H](CC(C)C)NC(=O)[C@@H](NC(=O)CNC(=O)[C@H](CCSC)NC(=O)[C@@H](NC(=O)[C@@H](N)Cc1ccccc1)[C@@H](C)O)C(C)C)C(=O)O	1	58.3	–	–	–
MPVTVASAAQ	–	–	51.7	1	–
CC(C)C[C@H](NC(=O)[C@@H](NC(=O)[C@@H](NC(=O)[C@H](CC(C)C)NC(=O)[C@@H]1CCCN1C(=O)CNC(=O)[C@@H](NC(=O)[C@H](C)N)[C@@H](C)O)[C@@H](C)O)[C@@H](C)O)C(=O)N[C@@H](Cc1c[nH]c2ccccc12)C(=O)O	1	275.0	–	–	T cell response [SFC] (per epitope): 275 SFC; # of responders: 1
CC[C@H](C)[C@H](NC(=O)[C@H](CCCCN)NC(=O)[C@H](CO)NC(=O)[C@H](CO)NC(=O)CN)C(=O)N[C@@H](CCCNC(=N)N)C(=O)N[C@@H](Cc1c[nH]c2ccccc12)C(=O)N[C@H](C(=O)N[C@H](C(=O)N[C@@H](CCC(=O)O)C(=O)O)C(C)C)[C@@H](C)CC [GSSKIRWIVE]	2	111.7	–	–	–
CC(C)C[C@H](NC(=O)[C@H](CCC(N)=O)NC(=O)CNC(=O)[C@@H]1CCCN1C(=O)[C@@H](N)CCC(=O)O)C(=O)N[C@@H](CCCCN)C(=O)N[C@@H](CC(C)C)C(=O)N[C@@H](CC(N)=O)C(=O)N[C@@H](Cc1c[nH]c2ccccc12)C(=O)N[C@@H](Cc1ccccc1)C(=O)O	5	581.7	–	–	–
REWCFTGERN	–	–	1345.0	2	–
CSCC[C@H](NC(=O)[C@H](C)NC(=O)CNC(=O)[C@H](CCC(=O)O)NC(=O)[C@@H](N)CCC(N)=O)C(=O)N[C@@H](Cc1c[nH]cn1)C(=O)N[C@H](C(=O)N[C@@H](C)C(=O)N[C@@H](CC(C)C)C(=O)O)[C@@H](C)O [QEGAMHTAL]	–	–	40.0	1	–
CSCC[C@H](NC(=O)[C@H](CC(N)=O)NC(=O)[C@@H](NC(=O)[C@H](CO)NC(=O)[C@H](CO)NC(=O)[C@@H](N)C(C)C)C(C)C)C(=O)N[C@H](C(=O)N[C@@H](CO)C(=O)N[C@@H](CCCNC(=N)N)C(=O)N[C@@H](CC(C)C)C(=O)O)C(C)C	–	–	–	–	# donors responded [5]: 1; Total Response per epitope [6]: 421.7
CSCC[C@H](NC(=O)[C@@H](NC(=O)[C@H](Cc1ccc(O)cc1)NC(=O)[C@H](CO)NC(=O)[C@@H](N)CCSC)[C@@H](C)O)C(=O)N[C@@H](CS)C(=O)N[C@@H](CO)C(=O)NCC(=O)N[C@@H](CCCCN)C(=O)O	–	–	23.3	1	–
CC(C)C[C@H](NC(=O)[C@H](CO)NC(=O)CNC(=O)[C@H](CS)NC(=O)[C@H](Cc1c[nH]c2ccccc12)NC(=O)[C@H](CCC(N)=O)NC(=O)[C@H](CC(=O)O)NC(=O)[C@H](CCC(=O)O)NC(=O)[C@@H](N)CCCNC(=N)N)C(=O)O	–	–	48.3	1	–
CC[C@H](C)[C@H](NC(=O)[C@@H]1CCCN1C(=O)[C@H](C)NC(=O)[C@H](CC(N)=O)NC(=O)[C@H](CO)NC(=O)[C@H](CCC(N)=O)NC(=O)[C@@H]1CCCN1C(=O)[C@@H](N)Cc1ccccc1)C(=O)N[C@@H](CCSC)C(=O)N[C@@H](CC(=O)O)C(=O)O	4	716.7	–	–	–
CC[C@H](C)[C@H](NC(=O)[C@H](C)NC(=O)[C@H](C)NC(=O)[C@H](CCSC)NC(=O)[C@@H](NC(=O)[C@@H](N)[C@@H](C)O)[C@@H](C)CC)C(=O)N[C@@H](CC(C)C)C(=O)N[C@@H](C)C(=O)N[C@@H](Cc1ccc(O)cc1)C(=O)O	1	20.0	–	–	–
MVSRLLLNR	–	–	28.3	1	–

Compound	# donors responded [1]	Total Response per epitope [2]	Total Response per epitope [3]	# donors responded [4]	other results
CC[C@H](C)[C@H](N)C(=O)N1CCC[C@H]1C(=O)N[C@@H](CCSC)C(=O)N[C@H](C(=O)NCC(=O)N1CCC[C@H]1C(=O)N[C@@H](CC(C)C)C(=O)N[C@H](C(=O)N[C@@H](C)C(=O)NCC(=O)O)C(C)C)[C@@H](C)O	5	1160.0	–	–	–
CC[C@H](C)[C@H](NC(=O)[C@H](C)NC(=O)CNC(=O)[C@@H](N)Cc1ccccc1)C(=O)N[C@@H](Cc1ccc(O)cc1)C(=O)NCC(=O)N[C@@H](C)C(=O)N[C@@H](C)C(=O)N[C@@H](Cc1ccccc1)C(=O)O	3	798.3	–	–	–
IANOATVLM	–	–	–	–	T cell response [SFC] (per epitope): 1518 SFC; # of responders: 7
CC[C@H](C)[C@H](NC(=O)[C@@H](NC(=O)[C@H](Cc1ccccc1)NC(=O)CNC(=O)[C@@H]1CCCN1C(=O)[C@@H](N)Cc1c[nH]cn1)[C@@H](C)O)C(=O)N[C@@H](CC(C)C)C(=O)N[C@@H](C)C(=O)N[C@@H](CC(C)C)C(=O)N[C@@H](Cc1ccccc1)C(=O)O	9	3763.3	–	–	–
CC[C@H](C)[C@H](NC(=O)[C@H](C)NC(=O)[C@H](Cc1ccc(O)cc1)NC(=O)[C@H](Cc1c[nH]cn1)NC(=O)[C@@H](NC(=O)[C@@H](NC(=O)[C@H](CC(C)C)NC(=O)[C@H](CC(C)C)NC(=O)[C@H](CC(C)C)NC(=O)[C@@H](N)C(C)C)C(C)C)[C@@H](C)O)C(=O)O	–	–	–	–	# donors responded [5]: 1; Total Response per epitope [6]: 40.0
CC[C@H](C)[C@H](NC(=O)[C@@H](NC(=O)[C@@H](NC(=O)[C@H](CC(N)=O)NC(=O)[C@H](Cc1c[nH]c2ccccc12)NC(=O)[C@H](Cc1ccccc1)NC(=O)[C@H](CCCCN)NC(=O)CNC(=O)[C@@H]1CCCN1C(=O)[C@@H](N)CO)[C@@H](C)O)[C@@H](C)O)C(=O)O	–	–	826.7	3	–
CSCC[C@H](NC(=O)[C@H](CO)NC(=O)[C@H](Cc1ccc(O)cc1)NC(=O)[C@H](CO)NC(=O)[C@@H](N)CCSC)C(=O)N[C@@H](CS)C(=O)N[C@H](C(=O)NCC(=O)N[C@@H](CCCCN)C(=O)N[C@@H](Cc1ccccc1)C(=O)O)[C@@H](C)O	–	–	2553.3	6	T cell response [SFC] (per epitope): 2553 SFC; # of responders: 6
CC[C@H](C)[C@H](N)C(=O)N1CCC[C@H]1C(=O)N[C@@H](CCSC)C(=O)N[C@@H](C)C(=O)N[C@H](C(=O)N[C@@H](Cc1ccc(O)cc1)C(=O)NCC(=O)N[C@@H](Cc1c[nH]c2ccccc12)C(=O)N[C@@H](CC(N)=O)C(=O)N[C@@H](CC(C)C)C(=O)O)[C@@H](C)O	2	456.7	–	–	–
CSCC[C@H](NC(=O)[C@H](CC(C)C)NC(=O)[C@@H](NC(=O)[C@H](CCC(=O)O)NC(=O)[C@@H](N)CC(C)C)[C@@H](C)O)C(=O)N[C@@H](CC(C)C)C(=O)N[C@H](C(=O)N[C@@H](C)C(=O)N[C@@H](CC(C)C)C(=O)O)C(C)C [LETLMLVAL]	–	–	103.3	1	–
FAGPVSQHNY	3	428.3	–	–	–
CSCC[C@H](NC(=O)[C@@H](NC(=O)[C@H](CCCNC(=N)N)NC(=O)CNC(=O)[C@H](CC(C)C)NC(=O)[C@H](CC(=O)O)NC(=O)[C@H](CCCNC(=N)N)NC(=O)[C@H](Cc1ccccc1)NC(=O)[C@H](CO)NC(=O)[C@@H](N)CCSC)C(C)C)C(=O)O	–	–	3250.0	8	T cell response [SFC] (per epitope): 3250 SFC; # of responders: 8
FTILALFLAH	8	1715.0	–	–	T cell response [SFC] (per epitope): 1715 SFC; # of responders: 8
CC(C)C[C@H](NC(=O)[C@H](CC(C)C)NC(=O)[C@@H](NC(=O)[C@H](C)NC(=O)[C@H](C)N)C(C)C)C(=O)N[C@@H](CC(C)C)C(=O)N[C@H](C(=O)N[C@H](C(=O)N[C@@H](Cc1c[nH]cn1)C(=O)N[C@@H](Cc1ccc(O)cc1)C(=O)O)[C@@H](C)O)C(C)C	2	393.3	–	–	–
CC(C)C[C@H](NC(=O)[C@H](CC(C)C)NC(=O)[C@H](CC(C)C)NC(=O)[C@@H](NC(=O)[C@H](CCC(=O)O)NC(=O)[C@H](CC(C)C)NC(=O)[C@@H](NC(=O)[C@H](CCC(=O)O)NC(=O)[C@@H]1CCCN1C(=O)[C@@H](N)CC(C)C)[C@@H](C)O)[C@@H](C)O)C(=O)O	–	–	296.7	4	–
CC[C@H](C)[C@H](N)C(=O)N[C@@H](C)C(=O)N[C@@H](CC(N)=O)C(=O)N[C@@H](CCC(N)=O)C(=O)N[C@@H](C)C(=O)N[C@H](C(=O)N[C@H](C(=O)N[C@@H](CC(C)C)C(=O)N[C@@H](CCSC)C(=O)O)C(C)C)[C@@H](C)O	7	1518.3	–	–	–
KSGAIKVLK	1	48.3	–	–	–
NPNMIDKTPV	–	–	376.7	2	–

Source: patent publication US10308689B2, “Dengue virus (DV) polypeptide sequences, T cell epitopes and methods and uses thereof” (LA JOLLA INSTITUTE FOR ALLERGY AND IMMUNOLOGY, priority 2010, dated 2019)
